Tests used:
[1] = molecular target: hNurr1_RXRγFL (NURR1/RXRγ heterodimer) (Homo sapiens, UniProt P43354+P48443); assay: Transactivation assay in Cos-7 cells, NURR-1-Gal4 / RXRγ, luciferase reporter; type: cell-based; conditions: for Emax: COS-7, read-out: hNurr1_RXRγFL Eff (%), efficacy in % relative to the reference XCT0135908 at 2·10^−5 M (=100%); for EC50: Cos-7 cells, overnight incubation
Method: (§1) First, the capacity of the compounds according to the invention for acting as an activator of the heterodimers formed by the NURR-1 nuclear receptor and the RXR nuclear receptors was measured by an in vitro assay.
(§2) A transactivation assay was used as a primary screening assay. Cos-7 cells were co-transfected with a plasmid expressing a chimera of the human receptor NURR-1-Gal4, a plasmid expressing the human receptor RXR (RXRα or RXRγ receptor) and a reporter plasmid 5Gal4pGL3-TK-Luc. The transfections were performed by means of a chemical agent (Jet PEI).
(§3) The transfected cells were distributed in 384-well plates and left resting for 24 hours.
(§4) After 24 hours, the culture medium was changed. The products according to the invention were added (final concentration between 10^−4 and 3·10^−10 M) to the culture medium. After overnight incubation, luciferase expression was measured after addition of “SteadyGlo” according to the manufacturer's instructions (Promega).
(§5) 4-[[6-Methyl-2-phenyl-5-(2-prop enyl)-4-pyrimidinyl]amino]-benzoic acid (called XCT0135908, which was described in the article by Wallen-Mackenzie et al. published in Genes & Development 17, pages 3036-3047) at 2·10^−5 M (RXR agonist) was used as reference.
(§6) The levels of induction (designated by “efficiency”) were calculated relative to the baseline activity of each heterodimer. The results were expressed as a percentage of the level of induction relative to the level of induction obtained with the reference (the level of induction of the reference is arbitrarily taken to be 100%).

[2] = molecular target: hNurr1_RXRαFL (NURR1/RXRα heterodimer) (Homo sapiens, UniProt P19793+P43354); assay: Transactivation assay in Cos-7 cells, NURR-1-Gal4 / RXRα, luciferase reporter; type: cell-based; conditions: for Emax: COS-7, read-out: hNurr1_RXRαFL Eff (%), efficacy in % relative to the reference XCT0135908 at 2·10^−5 M (=100%); for EC50: Cos-7 cells, overnight incubation
Sequence of hNurr1_RXRαFL (NURR1/RXRα heterodimer) (P19793 whole entry, the tested form may be a part): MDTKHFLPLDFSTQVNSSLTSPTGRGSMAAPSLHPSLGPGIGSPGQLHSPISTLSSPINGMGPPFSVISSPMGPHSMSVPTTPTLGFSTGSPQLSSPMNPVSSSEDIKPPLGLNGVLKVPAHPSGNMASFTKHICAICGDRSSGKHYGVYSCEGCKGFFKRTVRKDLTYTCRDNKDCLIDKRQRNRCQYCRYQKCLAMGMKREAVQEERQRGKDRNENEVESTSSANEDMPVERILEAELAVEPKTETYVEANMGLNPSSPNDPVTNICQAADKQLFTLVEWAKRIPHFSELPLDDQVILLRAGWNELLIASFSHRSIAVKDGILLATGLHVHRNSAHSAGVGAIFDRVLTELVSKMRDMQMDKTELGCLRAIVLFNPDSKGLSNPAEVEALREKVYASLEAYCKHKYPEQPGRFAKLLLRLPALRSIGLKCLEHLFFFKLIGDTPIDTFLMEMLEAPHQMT
Sequence of hNurr1_RXRαFL (NURR1/RXRα heterodimer) (P43354 328-598): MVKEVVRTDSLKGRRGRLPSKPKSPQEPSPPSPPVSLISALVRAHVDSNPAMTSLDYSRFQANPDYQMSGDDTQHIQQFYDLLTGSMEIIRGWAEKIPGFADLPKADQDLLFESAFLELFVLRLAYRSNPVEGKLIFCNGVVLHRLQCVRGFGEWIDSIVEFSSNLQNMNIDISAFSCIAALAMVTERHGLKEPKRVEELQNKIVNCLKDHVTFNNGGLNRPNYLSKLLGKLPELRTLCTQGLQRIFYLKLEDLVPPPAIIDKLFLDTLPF
Method: as §1, §2, §3, §4, §5, §6

[3] = efficacy in % relative to the reference XCT0135908 at 2·10^−5 M (=100%)

Sequence of hNurr1_RXRγFL (NURR1/RXRγ heterodimer) (P43354 328-598): as above
Sequence of hNurr1_RXRγFL (NURR1/RXRγ heterodimer) (P48443 whole entry, the tested form may be a part): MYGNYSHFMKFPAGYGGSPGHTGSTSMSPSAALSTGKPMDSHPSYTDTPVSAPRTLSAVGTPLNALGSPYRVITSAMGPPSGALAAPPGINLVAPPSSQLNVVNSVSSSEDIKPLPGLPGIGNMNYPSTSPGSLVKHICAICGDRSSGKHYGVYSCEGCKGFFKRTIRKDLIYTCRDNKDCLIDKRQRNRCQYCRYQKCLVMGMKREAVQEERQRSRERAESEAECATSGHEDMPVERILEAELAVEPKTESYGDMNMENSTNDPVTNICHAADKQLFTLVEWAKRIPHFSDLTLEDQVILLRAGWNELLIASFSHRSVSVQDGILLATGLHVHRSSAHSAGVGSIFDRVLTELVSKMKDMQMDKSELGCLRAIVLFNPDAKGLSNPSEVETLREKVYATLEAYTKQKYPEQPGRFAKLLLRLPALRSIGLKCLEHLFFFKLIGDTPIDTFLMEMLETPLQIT

| Structure (SMILES) | Emax [1] [%] | EC50 [1] [nM] | Emax [2] [%] | EC50 [2] [nM] | hNurr1_RXRγFL Eff (%) [1, 3] [%] | hNurr1_RXRαFL Eff (%) [2, 3] [%] |
| --- | --- | --- | --- | --- | --- | --- |
| CC(C)(C)c1cccc(S(=O)(=O)n2c(Cc3ccc(CNS(C)(=O)=O)cc3)cc3cc(C(F)(F)F)ccc32)c1 [Example 227, N-[4-[[1-[[3-(1,1-dimethylethyl)phenyl]sulfonyl]-5-(trifluoromethyl)-1H-indol-2-yl]methyl]benzyl]-methanesulfonamide] | 86 | 316 | 73 | 219 | – | – |
| CC(C)(C)c1cccc(S(=O)(=O)n2c(Cc3ccc(-c4n[nH]c(=O)o4)cc3)cc3cc(C(F)(F)F)ccc32)c1 [Example 226, 5-[4-[[1-[[3-(1,1-dimethylethyl)phenyl]sulfonyl]-5-(trifluoromethyl)-1H-indol-2-yl]methyl]-phenyl]-3H-[1,3,4]oxadiazol-2-one] | 70 | > 10000 | 82 | 465 | – | – |
| COc1ccc(S(=O)(=O)n2c(Cc3ccc(C(=O)O)cc3)cc3cc(C(F)(F)F)ccc32)cc1 [Example 138, 4-[[1-[4-methoxy-phenylsulfonyl]-5-(trifluoromethyl)-1H-indol-2-yl]methyl]benzoic acid] | 28 | 583 | 41 | 344 | – | – |
| CCCCCc1ccc(S(=O)(=O)n2c(Cc3ccc(C(=O)O)cc3)cc3cc(C(F)(F)F)ccc32)cc1 [Example 140, 4-[[1-[4-pentyl-benzenesulfonyl]-5-(trifluoromethyl)-1H-indol-2-yl]methyl]benzoic acid] | 22 | 387 | 46 | 368 | – | – |
| O=C(O)c1ccc(Cc2cc3cc(C(F)(F)F)ccc3n2S(=O)(=O)c2ccc(-c3ccccc3)s2)cc1 [Example 14, 4-[[1-[(5-phenyl-2-thienyl)sulfonyl]-5-(trifluoromethyl)-1H-indol-2-yl]methyl]benzoic acid] | 30 | 778 | 69 | 396 | – | – |
| O=C(O)c1ccc(Cc2cc3cc(C(F)(F)F)ccc3n2S(=O)(=O)c2cccc(-c3ccc(Cl)cc3)c2)cc1 [Example 146, 4-[[1-[4′-chloro-biphenyl-3-sulfonyl]-5-(trifluoromethyl)-1H-indol-2-yl]methyl]benzoic acid] | 24 | 1180 | 43 | 619 | – | – |
| Cc1c(Cc2cccc(C(=O)O)c2)n(S(=O)(=O)c2cccc(C(C)(C)C)c2)c2ccc(C(F)(F)F)cc12 [Example 186, 3-[[1-[[3-(1,1-dimethylethyl)phenyl]sulfonyl]-3-methyl-5-(trifluoromethyl)-1H-indol-2-yl]methyl]-benzoic acid] | 68 | 288 | 93 | 124 | – | – |
| O=C(O)c1ccc(Cc2cc3cc(C(F)(F)F)ccc3n2S(=O)(=O)c2cc3ccccc3o2)cc1 [Example 122, 4-[[1-[benzofuran-2-sulfonyl]-5-(trifluoromethyl)-1H-indol-2-yl]methyl]benzoic acid] | 54 | 680 | 62 | 353 | – | – |
| COC(=O)c1ccc(Cc2cc3ccccc3n2S(=O)(=O)c2cccc(C(C)(C)C)c2)cc1 [Example 194, 4-[[1-[[3-(1,1-dimethylethyl)phenyl]sulfonyl]-1H-indol-2-yl]methyl]-benzoic acid, methyl ester] | 36 | 316 | 42 | 344 | – | – |
| O=C(O)c1ccc(Cc2cc3cc(Cl)ccc3n2S(=O)(=O)c2ccc(C(F)(F)F)cc2)cc1 [Example 158, 4-[[1-[4-trifluoro-phenylsulfonyl]-5-(chloro)-1H-indol-2-yl]methyl]benzoic acid] | 53 | 1260 | 66 | 504 | – | – |
| CC(C)c1ccc(S(=O)(=O)n2c(Cc3ccc(C(=O)O)c(O)c3)cc3cc(C(F)(F)F)ccc32)cc1 [Example 68, 2-hydroxy-4-[[1-[[4-(1-methylethyl)phenyl]sulfonyl]-5-(trifluoromethyl)-1H-indol-2-yl]methyl]-benzoic acid] | 43 | 553 | 51 | 343 | – | – |
| CC(C)(CO)c1cccc(S(=O)(=O)n2c(Cc3ccc(C(=O)O)cc3)cc3cc(C(F)(F)F)ccc32)c1 [Example 231, 4-[[1-[[3-(2-hydroxy-1,1-dimethylethyl)phenyl]sulfonyl]-5-(trifluoromethyl)-1H-indol-2-yl]methyl]benzoic acid] | 62 | 164 | 81 | 65 | – | – |
| COC(=O)c1ccc(Cc2cc3cc(Cl)ccc3n2S(=O)(=O)c2ccc(C(C)C)cc2)cc1 [Example 40, 4-[[5-chloro-1-[[4-(1-methylethyl)phenyl]sulfonyl]-1H-indol-2-yl]methyl]benzoic acid, methyl ester] | 75 | 2110 | 96 | 560 | – | – |
| CC(C)(C)c1cccc(S(=O)(=O)n2c(Cc3ccc(C(=O)O)cn3)cc3cc(C(F)(F)F)ccc32)c1 [Example 66] | 79 | 110 | 80 | 71 | – | – |
| CN1CCOc2ccc(S(=O)(=O)n3c(Cc4ccc(C(=O)O)cc4)cc4cc(C(F)(F)F)ccc43)cc21 [Example 45, 4-[[1-[(3,4-dihydro-4-methyl-2H-1,4-benzoxazin-6-yl)sulfonyl]-5-(trifluoromethyl)-1H-indol-2-yl]methyl]benzoic acid] | 50 | 201 | 70 | 97 | – | – |
| O=C(O)c1ccc(Cc2cc3cc(Cl)ccc3n2S(=O)(=O)c2ccc3c(c2)OCCO3)s1 [Example 77, 5-[[5-chloro-1-[(2,3-dihydro-benzo[1,4]dioxin-6-yl)sulfonyl]-1H-indol-2-yl]methyl]-thiophene-2-carboxylic acid] | 38 | 457 | 74 | 224 | – | – |
| CC(C)c1cccc(S(=O)(=O)n2c(Cc3ccc(C(=O)O)cc3)cc3cc(C(F)(F)F)ccc32)c1 [Example 114, 4-[[1-[[3-(1-methylethyl)phenyl]sulfonyl]-5-(trifluoromethyl)-1H-indol-2-yl]methyl]benzoic acid] | – | 145 | – | 63 | 76 | 109 |
| CC(C)(C)c1cccc(S(=O)(=O)n2c(Cc3ccc(C(=O)O)c(F)c3)cc3cc(C(F)(F)F)ccc32)c1 [Example 10, 2-fluoro-4-[[1-[[3-(1,1-dimethylethyl)phenyl]sulfonyl]-5-(trifluoromethyl)-1H-indol-2-yl]methyl]benzoic acid] | 56 | 943 | 63 | 406 | – | – |
| CCCc1ccc(S(=O)(=O)n2c(Cc3ccc(C(=O)O)cc3)cc3cc(Cl)ccc32)cc1 [Example 152, 4-[[1-[4-propyl-phenylsulfonyl]-5-(chloro)-1H-indol-2-yl]methyl]benzoic acid] | 75 | 858 | 87 | 269 | – | – |
| CC(C)(C)c1ccc(S(=O)(=O)n2c(Cc3ccc(C(=O)O)cc3)cc3cc(C(F)(F)F)ccc32)cc1 [Example 21, 4-[[1-[[4-(1,1-dimethylethyl)phenyl]sulfonyl]-5-(trifluoromethyl)-1H-indol-2-yl]methyl]benzoic acid] | 35 | 240 | 46 | 121 | – | – |
| Cc1cccc(S(=O)(=O)n2c(Cc3ccc(C(=O)O)cc3)cc3cc(C(F)(F)F)ccc32)c1 [Example 141, 4-[[1-[(3-methylphenyl)sulfonyl]-5-(trifluoromethyl)-1H-indol-2-yl]methyl]benzoic acid] | 30 | 364 | 41 | 285 | – | – |
| COC(=O)c1ccc(Cc2cc3cccc(F)c3n2S(=O)(=O)c2cccc(C(C)(C)C)c2)cc1 [Example 113, 4-[[1-[[3-(1,1-dimethylethyl)phenyl]sulfonyl]-7-fluoro-1H-indol-2-yl]methyl]benzoic acid, methyl ester] | 97 | 1860 | 103 | > 10000 | – | – |
| O=C(O)c1ccc(Cc2cc3cc(C(F)(F)F)ccc3n2S(=O)(=O)c2cccc(Cl)c2)cc1 [Example 143, 4-[[1-[3-chloro-phenylsulfonyl]-5-(trifluoromethyl)-1H-indol-2-yl]methyl]benzoic acid] | 18 | 425 | 33 | 339 | – | – |
| COC(=O)c1cc(Cc2cc3cc(C(F)(F)F)ccc3n2S(=O)(=O)c2cccc(C(C)(C)C)c2)cn1C [Example 192, 4-{[1-[[3-(1,1-dimethylethyl)-phenyl]sulfonyl]-5-trifluoromethyl-1H-indol-2-yl]-methyl}-1-methyl-1H-pyrrol-2-yl-carboxylic acid, methyl ester] | 58 | > 10000 | 85 | 1120 | – | – |

From patent US20120232070A1, “Use of Indole Derivatives as Nurr-1 Activators for the Application Thereof as a Medicament for the Treatment of Parkinson's Disease” (Laboratoires Fournier SA, priority 2009, published 2012)
